From PubChem BioAssay AID850 (SRMLSC, 2007)
Activity calls are given as the source filed them. No rule for the calls is given here.

Key:
[1] = concentration-response yeast growth inhibition under permissive conditions, counter-assay for yeast lifespan-shortening chemical project (AID 850); details: Saccharomyces cerevisiae growth inhibition, permissive control, measured here: maximum growth inhibition, stronger effect = higher value;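 also: growth read as optical density after one day of incubation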
[2] = test system: Saccharomyces cerevisiae growth inhibition, permissive control; test: as above

Row | SMILES | IC50 [2] | inhibition ([1]; at 50 µM) [%] | other results
1 | Cc1nn2c(-c3ccco3)nnc2c2ccccc12 | > 100 µM (inactive) | – | inhibition ([1]; at 25 µM): 14.3%
2 | Oc1c(Br)cc(Br)cc1C=Nc1ccc2c(c1)OCO2 | 36.5 µM | 86 | –
3 | Cc1cccc(CSc2cccc3cccnc23)c1 | 13.8 µM | 99.4 | –
4 | Cc1cc(C(=O)COC(=O)c2ccc[nH]c2=O)c(C)n1-c1ccc(F)cc1 | > 100 µM (inactive) | 12.8 | –
5 | CCn1ncc(C2=NOC(C(=O)Nc3c(C)n(C)n(-c4ccccc4)c3=O)C2)c1C (stereo unspecified) | > 100 µM (inactive) | – | inhibition ([1]; at 0.195 µM): 6.76%
6 | CCCn1c(CNc2ccccc2O)nc2ccccc21 | > 100 µM (inactive) | 18.9 | –
7 | c1ccc(-c2nnc(-c3ccccn3)nc2NC2CCCCC2)cc1 | 12.6 µM | 99.6 | –
8 | Cc1cc([N+](=O)[O-])ccc1-c1ccc(C2Nc3ccccc3C(=O)N2O)o1 (stereo unspecified) | > 100 µM (inactive) | – | inhibition ([1]; at 0.781 µM): 3.97%
9 | Cc1cc(N2CCN(c3cccc(C)c3C)CC2)nc(-c2ccccc2)n1 | 37.3 µM | 93 | –
10 | Oc1ccc(/C=N/N=C(c2ccccc2)c2ccccc2)c(O)c1O | 30.1 µM | 79.8 | –
11 | CN1CCN(C2=Cc3cc(Cl)ccc3Sc3cc(F)ccc32)CC1 | 20.4 µM | 100 | –
12 | O=[N+]([O-])c1cc(/C=N/O)ccc1Sc1ccccc1 | > 100 µM (inactive) | 7.13 | –
13 | CCSc1nc2ccccc2n1S(=O)(=O)c1ccccc1 | > 100 µM (inactive) | – | inhibition ([1]; at 3.125 µM): 26.4%
14 | c1ccc(Cc2nnc3sc(-c4ccco4)nn23)cc1 | > 100 µM (inactive) | – | inhibition ([1]; at 25 µM): 4.05%
15 | N/C(Cc1ccc(Cl)cc1Cl)=N\OC(=O)c1cccs1 | 0.925 µM | – | inhibition ([1]; at 12.5 µM): 100%
16 | CCCCCCc1ccc(-c2ncc(N)cn2)cc1 | 22.9 µM | 99.2 | –
17 | CCCCNC(=S)NCc1ccc2c(c1)cc(C)n2C | > 100 µM (inactive) | – | inhibition ([1]; at 0.781 µM): 0.79%
18 | O=[N+]([O-])c1ccc(Cl)c(S(=O)(=O)N2CCCCCC2)c1 | 31.8 µM | 58.1 | –
19 | Cc1cc(C(=O)N/N=C/c2cccc([N+](=O)[O-])c2O)n[nH]1 | > 100 µM (inactive) | – | inhibition ([1]; at 6.25 µM): 19.4%
20 | O=c1c(-c2ccccc2)nc(-c2ccccc2)cn1O | 22.9 µM | 82.1 | –
21 | O=C(CCc1ccccc1)NNC(=S)NC(=O)c1ccccc1 | > 100 µM (inactive) | – | inhibition ([1]; at 12.5 µM): 22.5%

Row | SMILES | IC50 [2] | inhibition ([1]; at 50 µM) [%] | other results
22 | CCc1cccc(CC)c1NC(=S)NCc1ccc2[nH]c(C)cc2c1 | > 100 µM (inactive) | 13.8 | –
23 | CCSc1nnc(NC(=O)c2ccccn2)s1 | 12.7 µM | 97.8 | –
24 | Oc1cccc2ccc(/C=C/c3cccs3)nc12 | 37.4 µM | 67.1 | –
25 | Cc1ccc(-c2[nH]nc(N)c2N=Nc2ccccc2C)cc1 | > 100 µM (inactive) | – | inhibition ([1]; at 0.391 µM): 17.6%
26 | O=C(c1ccc(C(=O)N2CCCc3ccccc32)s1)N1CCCc2ccccc21 | 34.1 µM | 87 | –
27 | N/C(Cc1ccccc1)=N\OC(=O)c1cccc2ccccc12 | 8.26 µM | 100 | –
28 | CCOC(=O)/C(=N\Nc1ccccc1Cl)N1CCN(Cc2ccccc2)CC1 | 26.8 µM | 73.9 | –
29 | Cc1ccc(/C=C2\C(=O)Nc3ccccc32)o1 | > 100 µM (inactive) | – | inhibition ([1]; at 25 µM): 26.6%
30 | CC(C)c1ccc(NC(=S)NCCc2c[nH]c3ccccc23)cc1 | > 100 µM (inactive) | – | inhibition ([1]; at 3.125 µM): 20.3%
31 | Cc1ccc(-n2cnc3cc(NCc4cccs4)ccc32)cc1 | 45.8 µM | 53.2 | –
32 | Nc1nc2sc3c(c2c(=O)s1)CCCC3 | > 100 µM (inactive) | – | inhibition ([1]; at 0.195 µM): 24.4%
33 | CC(Nc1ccc(Br)cn1)c1cc(Cl)ccc1O (stereo unspecified) | > 100 µM (inactive) | – | inhibition ([1]; at 0.781 µM): 12.8%
34 | O=C(O)c1cc(-c2ccc(/C=N/Nc3ccc(Cl)cc3)o2)ccc1Cl | 4.41 µM | 98.8 | –
35 | Oc1c(CN2CCN(c3ccccn3)CC2)cc(Cl)c2cccnc12 | 26.5 µM | 95.9 | –
36 | Cc1oc(-c2ccc3c(c2)OCCO3)cc1C(=O)O | 47.8 µM | – | inhibition ([1]; at 25 µM): 48.3%
37 | CN(c1ccccc1)c1ccc(/C=C/[N+](=O)[O-])cc1 | 16.8 µM | 98.4 | –
38 | Clc1ccc2[nH]c3c(c2c1)CCc1cn[nH]c1-3 | 5.72 µM | – | inhibition ([1]; at 25 µM): 93.8%
39 | CCOC(=O)c1c(/N=C/c2cc([N+](=O)[O-])ccc2O)sc(C)c1C | 39.9 µM | – | inhibition ([1]; at 25 µM): 52.7%
40 | Cc1ccc2c(c1)C(=NC1CCCCC1)c1cc3ccccc3nc1-2 | > 100 µM (inactive) | – | inhibition ([1]; at 12.5 µM): 22.8%
41 | Cn1c(SCC(=O)Nc2ccccc2)nc(O)cc1=O | 33.2 µM | 76.2 | –
42 | COc1ccccc1NC(=O)Cc1noc(CSc2cccc[n+]2[O-])n1 | 21.9 µM | 97.7 | –

Row | SMILES | IC50 [2] | inhibition ([1]; at 50 µM) [%] | other results
43 | OC(CNCC1CCCO1)Cn1c2ccc(Br)cc2c2cc(Br)ccc21 (stereo unspecified) | 41 µM | 98.8 | –
44 | Cc1ccc(O)c(-c2cc(-c3ccccc3C)[nH]n2)c1 | 44.7 µM | 56.5 | –
45 | O=[N+]([O-])c1ccc(Sc2nc3ccccc3o2)c([N+](=O)[O-])c1 | 50.1 µM | 48.3 | –
46 | CC(=O)/C(=N\Nc1ccc(C)cc1)N1CCOCC1 | 5.2 µM | 96.4 | –
47 | Cc1ccc(Oc2nc(CN3CCOCC3)nc3sc4c(c23)CCC(C)C4)cc1C (stereo unspecified) | 23.5 µM | 93.4 | –
48 | CCOc1cc(/C=N/Nc2ccccc2Cl)ccc1OCC(=O)O | 9.2 µM | 99 | –
49 | C/C(=N\NC(=O)c1ccc(CSc2cccc3cccnc23)cc1)C1CCCCC1 | 29.7 µM | 93.4 | –
50 | O=C(O)c1ccccc1Nc1ccc([N+](=O)[O-])cc1 | 14.6 µM | 98 | –
51 | CCC(C)NC(=O)C1CCN(S(=O)(=O)c2cccc3cccnc23)CC1 (stereo unspecified) | > 100 µM (inactive) | 12.2 | –
52 | CCN1CCN(C(=O)C(NS(=O)(=O)c2ccc3nc(C)sc3c2)C(C)C)CC1 (stereo unspecified) | > 100 µM (inactive) | – | inhibition ([1]; at 0.098 µM): 16.9%
53 | Cc1ccc(-c2nc(N)sc2-c2ccccc2)cc1C | > 100 µM (inactive) | – | inhibition ([1]; at 6.25 µM): 16%
54 | O=C(Nc1nc(-c2ccccn2)cs1)c1ncc(Cl)c(Cl)c1Cl | > 100 µM (inactive) | – | inhibition ([1]; at 12.5 µM): 13.1%
55 | CSC1=NSC2=NC(=O)/C(=C/c3coc4ccccc4c3=O)C(=N)N12 | > 100 µM (inactive) | 28.3 | –
56 | Cc1ccc2c(c1)c1c(n2C)-c2[nH]ncc2CC1 | 38.2 µM | 71.1 | –
57 | Cc1cccc(OCCCCc2c(C)n[nH]c2C)c1C | 32 µM | 76.5 | –
58 | Cc1ccc(CNC(=O)c2ccc(Cn3nc(C)c(Cl)c3C)o2)cc1 | 17.2 µM | 99.8 | –
59 | Cc1cccc(-c2nnc3sc(-c4ccccc4C)nn23)c1 | > 100 µM (inactive) | 29.1 | –
60 | CN1CCN(C2=Cc3ccc(Cl)cc3Sc3ccc(F)cc32)CC1 | 27.2 µM | 99.8 | –
61 | COc1ccc(-c2nncnn2)cc1 | 7.1 µM | 99.8 | –
62 | COc1ccc(CNC(=O)CSc2nnc(-c3ccc(NC(C)=O)cc3)n2C)cc1 | > 100 µM (inactive) | – | inhibition ([1]; at 3.125 µM): 26.8%
63 | C=C(C)COc1ccc(-c2[nH]ncc2Oc2cccc(OC)c2)c(O)c1 | > 100 µM (inactive) | – | inhibition ([1]; at 12.5 µM): 20.1%
